The results in this text go back to patent publication US9999619B2, “Piperidin-4-yl azetidine derivatives as JAK1 inhibitors” (Incyte Corporation, priority 2010, dated 2018).

Common to all, as to format: biochemical
For assay [1], the target named is human JAK1 (a.a. 837-1142) (Homo sapiens, UniProt P23458). Kind of assay: In vitro JAK kinase assay (HTRF, phosphorylation of a biotinylated peptide), JAK1. The conditions noted are these: measured at 1 mM ATP. The procedure, abridged:
(§1)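 Phosphorylation of a biotinylated peptide by purified His-tagged JAK catalytic domains (insect-cell baculovirus expression) ran 1 hr at room temperature. After stopping with EDTA, Eu-Py20 and SA-APC were bound for 40 minutes and HTRF measured.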
In general terms: In TR-FRET formats the signal depends on donor and acceptor labels being close together.

Assay [2] concerns the target human JAK1 (a.a. 837-1142). The assay is described as above. To be noted: ratio of JAK2 IC50 to JAK1 IC50, measured at 1 mM ATP. The essentials:
as §1

The target of assay [3] is Jak2 (a.a. 828-1132) (Homo sapiens (Human), UniProt O60674). As to the kind of experiment: In vitro JAK kinase assay (HTRF, phosphorylation of a biotinylated peptide), JAK2. The conditions noted are these: measured at 1 mM ATP. The procedure, abridged: as §1

A word on the IC50: it is the concentration that gives 50% inhibition.

Some results are limits rather than exact numbers.

Jak2 (a.a. 828-1132), sequence (O60674 828-1132): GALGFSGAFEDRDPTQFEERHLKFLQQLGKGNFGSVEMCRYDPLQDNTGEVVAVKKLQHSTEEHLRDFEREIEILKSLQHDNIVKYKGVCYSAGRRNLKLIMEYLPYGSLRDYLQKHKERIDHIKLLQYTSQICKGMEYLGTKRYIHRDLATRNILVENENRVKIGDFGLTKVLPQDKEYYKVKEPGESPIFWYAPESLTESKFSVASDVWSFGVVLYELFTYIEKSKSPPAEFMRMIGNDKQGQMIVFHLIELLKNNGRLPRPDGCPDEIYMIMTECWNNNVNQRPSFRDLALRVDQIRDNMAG

Take `N#CCC1(n2cc(-c3ncnc4[nH]ccc34)cn2)CN(C2CCN(C(=O)Nc3ncccc3C(F)(F)F)CC2)C1` [Example 201, 4-{3-(cyanomethyl)-3-[4-(7H-pyrrolo[2,3-d]pyrimidin-4-yl)-1H-pyrazol-1-yl]azetidin-1-yl}-N-[3-(trifluoromethyl)pyridin-2-yl]piperidine-1-carboxamide]: the IC50 lay in the range of 5 to 20 nM in assay [1] and 10 to 50 nM in assay [3]. Moreover, the “IC50 Ratio JAK2/JAK1” value in assay [2] was found to be 3.6.

`N#CCC1(n2cc(-c3ncnc4[nH]ccc34)cn2)CN(C2CCN(C(=O)Nc3ncccc3F)CC2)C1` [Example 202, 4-{3-(cyanomethyl)-3-[4-(7H-pyrrolo[2,3-d]pyrimidin-4-yl)-1H-pyrazol-1-yl]azetidin-1-yl}-N-(3-fluoropyridin-2-yl)piperidine-1-carboxamide]: the figures for the IC50 in assay [1] and in assay [3] were no more than 5 nM and 10 to 50 nM, respectively. In assay [2], the “IC50 Ratio JAK2/JAK1” value worked out at 6.4.

For `N#CCC1(n2cc(-c3ncnc4[nH]ccc34)cn2)CN(C2CCN(C(=O)Nc3ncc(F)cc3F)CC2)C1` [Example 203, 4-{3-(cyanomethyl)-3-[4-(7H-pyrrolo[2,3-d]pyrimidin-4-yl)-1H-pyrazol-1-yl]azetidin-1-yl}-N-(3,5-difluoropyridin-2-yl)piperidine-1-carboxamide], the IC50 in assay [1] was 5 to 20 nM; in assay [3] it was 50 to 100 nM. For the same molecule, the “IC50 Ratio JAK2/JAK1” value in assay [2] was 8.6.

In the case of `COc1ncccc1NC(=O)N1CCC(N2CC(CC#N)(n3cc(-c4ncnc5[nH]ccc45)cn3)C2)CC1` [Example 204, 4-{3-(cyanomethyl)-3-[4-(7H-pyrrolo[2,3-d]pyrimidin-4-yl)-1H-pyrazol-1-yl]azetidin-1-yl}-N-(2-methoxypyridin-3-yl)piperidine-1-carboxamide], the IC50 in assay [1] was no more than 5 nM; in assay [3], 10 to 50 nM. For the same molecule, the “IC50 Ratio JAK2/JAK1” value in assay [2] is 4.0.

For `Cc1nc(C(F)(F)F)ccc1NC(=O)N1CCC(N2CC(CC#N)(n3cc(-c4ncnc5[nH]ccc45)cn3)C2)CC1` [Example 205, 4-{3-(cyanomethyl)-3-[4-(7H-pyrrolo[2,3-d]pyrimidin-4-yl)-1H-pyrazol-1-yl]azetidin-1-yl}-N-[2-methyl-6-(trifluoromethyl)pyridin-3-yl]piperidine-1-carboxamide], the IC50 in assay [1] was in the range of 5 to 20 nM; in assay [3], 10 to 50 nM. The “IC50 Ratio JAK2/JAK1” value in assay [2] is reported as 4.4.

For `COC(=O)c1ccccc1NC(=O)N1CCC(N2CC(CC#N)(n3cc(-c4ncnc5[nH]ccc45)cn3)C2)CC1` [Example 206, methyl 2-{[(4-{3-(cyanomethyl)-3-[4-(7H-pyrrolo[2,3-d]pyrimidin-4-yl)-1H-pyrazol-1-yl]azetidin-1-yl}piperidin-1-yl)carbonyl]amino}benzoate], the IC50 in assay [1] is no more than 5 nM; in assay [3] it was no more than 10 nM. Besides, in assay [2], the “IC50 Ratio JAK2/JAK1” value is 1.6.

In the case of `COC(=O)c1cc(F)ccc1NC(=O)N1CCC(N2CC(CC#N)(n3cc(-c4ncnc5[nH]ccc45)cn3)C2)CC1` [Example 207, methyl 2-{[(4-{3-(cyanomethyl)-3-[4-(7H-pyrrolo[2,3-d]pyrimidin-4-yl)-1H-pyrazol-1-yl]azetidin-1-yl}piperidin-1-yl)carbonyl]amino}-5-fluorobenzoate], the IC50 in assay [1] is no more than 5 nM; in assay [3] it was no more than 10 nM. Further, the “IC50 Ratio JAK2/JAK1” value in assay [2] was 2.5.

Consider `COC(=O)c1ccc(NC(=O)N2CCC(N3CC(CC#N)(n4cc(-c5ncnc6[nH]ccc56)cn4)C3)CC2)c(F)c1` [Example 208, methyl 4-{[(4-{3-(cyanomethyl)-3-[4-(7H-pyrrolo[2,3-d]pyrimidin-4-yl)-1H-pyrazol-1-yl]azetidin-1-yl}piperidin-1-yl)carbonyl]amino}-3-fluorobenzoate], for which the IC50 was no more than 5 nM in assay [1] and 10 to 50 nM in assay [3]. The “IC50 Ratio JAK2/JAK1” value in assay [2] came to 4.8.

With `CN(C)c1ccc(CN2CCC(N3CC(CC#N)(n4cc(-c5ncnc6[nH]ccc56)cn4)C3)CC2)c(F)c1C#N` [Example 209, 3-[(4-{3-(Cyanomethyl)-3-[4-(7H-pyrrolo[2,3-d]pyrimidin-4-yl)-1H-pyrazol-1-yl]azetidin-1-yl}piperidin-1-yl)methyl]-6-(dimethylamino)-2-fluorobenzonitrile], the figures for the IC50 in assay [1] and in assay [3] were no more than 5 nM and 10 to 50 nM, respectively. In addition, in assay [2], the “IC50 Ratio JAK2/JAK1” value was found to be 19.0.

For the molecule `N#CCC1(n2cc(-c3ncnc4[nH]ccc34)cn2)CN(C2CCN(Cc3cc(Cl)cc(Cl)c3)CC2)C1` [Example 210, {1-[1-(3,5-dichlorobenzyl)piperidin-4-yl]-3-[4-(7H-pyrrolo[2,3-d]pyrimidin-4-yl)-1H-pyrazol-1-yl]azetidin-3-yl}acetonitrile], the values for the IC50 in assay [1] and in assay [3] were no more than 5 nM and no more than 10 nM, respectively. Further, the “IC50 Ratio JAK2/JAK1” value in assay [2] is 4.3.

Regarding `N#CCC1(n2cc(-c3ncnc4[nH]ccc34)cn2)CN(C2CCN(Cc3cc(C(F)(F)F)ccc3Cl)CC2)C1` [Example 211, {1-{1-[2-chloro-5-(trifluoromethyl)benzyl]piperidin-4-yl}-3-[4-(7H-pyrrolo[2,3-d]pyrimidin-4-yl)-1H-pyrazol-1-yl]azetidin-3-yl}acetonitrile], the IC50 lay in the range of 5 to 20 nM in assay [1] and 10 to 50 nM in assay [3]. In addition, the “IC50 Ratio JAK2/JAK1” value in assay [2] was 5.0.

For `N#CCC1(n2cc(-c3ncnc4[nH]ccc34)cn2)CN(C2CCN(Cc3cccc(C(F)(F)F)c3F)CC2)C1` [Example 212, {1-{-[2-fluoro-3-(trifluoromethyl)benzyl]piperidin-4-yl}-3-[4-(7H-pyrrolo[2,3-d]pyrimidin-4-yl)-1H-pyrazol-1-yl]azetidin-3-yl}acetonitrile], the IC50 was in the range of 5 to 20 nM in assay [1] and 50 to 100 nM in assay [3]. The “IC50 Ratio JAK2/JAK1” value in assay [2] turned out to be 7.8.

For the molecule `N#CCC1(n2cc(-c3ncnc4[nH]ccc34)cn2)CN(C2CCN(Cc3c(F)cccc3C(F)(F)F)CC2)C1` [Example 213, {1-{1-[2-fluoro-6-(trifluoromethyl)benzyl]piperidin-4-yl}-3-[4-(7H-pyrrolo[2,3-d]pyrimidin-4-yl)-1H-pyrazol-1-yl]azetidin-3-yl}acetonitrile], the IC50 is no more than 5 nM in assay [1] and 10 to 50 nM in assay [3]. In addition, in assay [2], the “IC50 Ratio JAK2/JAK1” value is given as 9.7.

Turning to `N#CCC1(n2cc(-c3ncnc4[nH]ccc34)cn2)CN(C2CCN(Cc3cc4ccccc4nc3Cl)CC2)C1` [Example 214, {1-{1-[(2-chloroquinolin-3-yl)methyl]piperidin-4-yl}-3-[4-(7H-pyrrolo[2,3-d]pyrimidin-4-yl)-1H-pyrazol-1-yl]azetidin-3-yl}acetonitrile], the values for the IC50 in assay [1] and in assay [3] were 5 to 20 nM and 10 to 50 nM, respectively. The “IC50 Ratio JAK2/JAK1” value in assay [2] stood at 2.5.

`N#CCC1(n2cc(-c3ncnc4[nH]ccc34)cn2)CN(C2CCN(Cc3cc(F)cc(F)c3)CC2)C1` [Example 215, {1-[1-(3,5-difluorobenzyl)piperidin-4-yl]-3-[4-(7H-pyrrolo[2,3-d]pyrimidin-4-yl)-1H-pyrazol-1-yl]azetidin-3-yl}acetonitrile]: the IC50 in assay [1] is no more than 5 nM; in assay [3] it was 10 to 50 nM. The “IC50 Ratio JAK2/JAK1” value in assay [2] was found to be 5.7.

As to `COc1cccc(F)c1CN1CCC(N2CC(CC#N)(n3cc(-c4ncnc5[nH]ccc45)cn3)C2)CC1` [Example 218, {1-[1-(2-fluoro-6-methoxybenzyl)piperidin-4-yl]-3-[4-(7H-pyrrolo[2,3-d]pyrimidin-4-yl)-1H-pyrazol-1-yl]azetidin-3-yl}acetonitrile], the IC50 in assay [1] is 20 to 30 nM; in assay [3] it was 50 to 100 nM. In assay [2], the “IC50 Ratio JAK2/JAK1” value is given as 2.6.

Turning to `N#CCC1(n2cc(-c3ncnc4[nH]ccc34)cn2)CN(C2CCN(Cc3cccc(Cl)c3Cl)CC2)C1` [Example 219, {1-[1-(2,3-dichlorobenzyl)piperidin-4-yl]-3-[4-(7H-pyrrolo[2,3-d]pyrimidin-4-yl)-1H-pyrazol-1-yl]azetidin-3-yl}acetonitrile], the IC50 in assay [1] is 5 to 20 nM; in assay [3] it was 10 to 50 nM. In addition, the “IC50 Ratio JAK2/JAK1” value in assay [2] came out at 2.4.

On to `N#CCC1(n2cc(-c3ncnc4[nH]ccc34)cn2)CN(C2CCN(Cc3ccc(F)c(C#N)c3)CC2)C1` [Example 220, 5-[(4-{3-(cyanomethyl)-3-[4-(7H-pyrrolo[2,3-d]pyrimidin-4-yl)-1H-pyrazol-1-yl]azetidin-1-yl}piperidin-1-yl)methyl]-2-fluorobenzonitrile], for which the IC50 in assay [1] was in the range of 5 to 20 nM; in assay [3], 50 to 100 nM. For the same molecule, the “IC50 Ratio JAK2/JAK1” value in assay [2] came to 4.4.

On to `N#CCC1(n2cc(-c3ncnc4[nH]ccc34)cn2)CN(C2CCN(Cc3ccc(-c4conn4)cc3)CC2)C1` [Example 221, {1-{1-[4-(1,2,3-oxadiazol-4-yl)benzyl]piperidin-4-yl}-3-[4-(7H-pyrrolo[2,3-d]pyrimidin-4-yl)-1H-pyrazol-1-yl]azetidin-3-yl}acetonitrile], for which the IC50 was in the range of 5 to 20 nM in assay [1] and 10 to 50 nM in assay [3]. Also, in assay [2], the “IC50 Ratio JAK2/JAK1” value stood at 1.3.

For the molecule `N#CCC1(n2cc(-c3ncnc4[nH]ccc34)cn2)CN(C2CCN(Cc3cccc(C#N)c3)CC2)C1` [Example 223, 3-[(4-{3-(cyanomethyl)-3-[4-(7H-pyrrolo[2,3-d]pyrimidin-4-yl)-1H-pyrazol-1-yl]azetidin-1-yl}piperidin-1-yl)methyl]benzonitrile], the IC50 lay in the range of 5 to 20 nM in assay [1] and 10 to 50 nM in assay [3]. Further, the “IC50 Ratio JAK2/JAK1” value in assay [2] amounted to 5.9.

Turning to `COc1nc(CN2CCC(N3CC(CC#N)(n4cc(-c5ncnc6[nH]ccc56)cn4)C3)CC2)ccc1C#N` [Example 224, 6-[(4-{3-(cyanomethyl)-3-[4-(7H-pyrrolo[2,3-d]pyrimidin-4-yl)-1H-pyrazol-1-yl]azetidin-1-yl}piperidin-1-yl)methyl]-2-methoxynicotinonitrile], the IC50 in assay [1] was 20 to 30 nM; in assay [3] it was 50 to 100 nM. Further, the “IC50 Ratio JAK2/JAK1” value in assay [2] turned out to be 2.4.
